Square brackets hold non-standard residues; d marks the D form. Peptide text beside a SMILES is read from it. Phe(4-Cl) = N[C@@H](Cc1ccc(Cl)cc1)C(=O)O; Cha = N[C@@H](CC1CCCCC1)C(=O)O
Target: T1, Androgen receptor (Homo sapiens, UniProt P10275)
T1 sequence (P10275 whole entry): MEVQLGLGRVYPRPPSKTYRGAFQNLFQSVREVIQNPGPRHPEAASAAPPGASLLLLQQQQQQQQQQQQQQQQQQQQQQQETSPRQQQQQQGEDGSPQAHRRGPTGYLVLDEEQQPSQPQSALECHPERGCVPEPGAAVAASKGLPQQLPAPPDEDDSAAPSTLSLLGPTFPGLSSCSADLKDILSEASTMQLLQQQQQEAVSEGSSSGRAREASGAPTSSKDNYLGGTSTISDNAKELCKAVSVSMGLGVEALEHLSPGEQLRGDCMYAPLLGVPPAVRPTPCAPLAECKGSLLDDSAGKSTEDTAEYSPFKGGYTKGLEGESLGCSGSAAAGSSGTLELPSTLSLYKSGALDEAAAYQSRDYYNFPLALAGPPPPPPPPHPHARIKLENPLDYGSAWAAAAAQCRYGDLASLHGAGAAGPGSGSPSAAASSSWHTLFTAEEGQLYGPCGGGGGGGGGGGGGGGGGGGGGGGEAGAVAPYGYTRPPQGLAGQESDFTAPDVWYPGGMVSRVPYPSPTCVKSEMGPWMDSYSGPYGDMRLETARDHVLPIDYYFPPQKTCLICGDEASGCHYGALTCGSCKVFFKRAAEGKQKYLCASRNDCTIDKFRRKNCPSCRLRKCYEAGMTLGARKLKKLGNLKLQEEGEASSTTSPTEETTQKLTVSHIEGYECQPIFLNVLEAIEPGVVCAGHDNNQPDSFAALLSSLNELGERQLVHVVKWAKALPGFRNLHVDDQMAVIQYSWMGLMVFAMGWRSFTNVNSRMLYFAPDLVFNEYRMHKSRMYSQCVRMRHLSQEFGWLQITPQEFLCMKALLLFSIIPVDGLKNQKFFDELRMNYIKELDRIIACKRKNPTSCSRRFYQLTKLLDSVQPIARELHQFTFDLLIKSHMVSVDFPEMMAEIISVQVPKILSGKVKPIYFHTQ
Test: Displacement of fluorescein-CSSRFESLFAGEKESR from human androgen receptor-LBD after 1 hr by fluorescence polarization assay

SMILES | Ki
CC(C)C[C@H](NC(=O)[C@H](CS)NC(=O)[C@H](Cc1ccccc1)NC(=O)[C@H](Cc1ccccc1)NC(=O)[C@H](Cc1ccc(O)cc1)NC(=O)[C@H](CS)NC(=O)[C@H](C)N)C(=O)N[C@@H](Cc1ccccc1)C(=O)N[C@@H](CCC(=O)O)C(=O)NCC(=O)N[C@@H](CC(N)=O)C(=O)N[C@@H](CC(=O)O)C(=O)N[C@@H](CCC(=O)O)C(=O)N[C@@H](CCC(=O)O)C(=O)N[C@H](C(=O)N[C@@H](CS)C(=O)N[C@@H](CCCCN)C(=O)N[C@@H](CCC(=O)O)C(=O)N[C@@H](Cc1c[nH]c2ccccc12)C(=O)N[C@@H](CS)C(=O)O)[C@@H](C)O (H-ACYFFCLFEGNDEETCKEWC-OH) | 4000 nM
CC[C@H](C)[C@H](NC(=O)[C@H](CS)NC(=O)[C@H](Cc1ccccc1)NC(=O)[C@H](CC(C)C)NC(=O)[C@H](CCC(=O)O)NC(=O)[C@H](CS)NC(=O)[C@H](Cc1ccccc1)NC(=O)[C@H](CCCNC(=N)N)NC(=O)[C@@H](N)CC(N)=O)C(=O)N[C@@H](CCC(N)=O)C(=O)NCC(=O)N[C@H](C(=O)NCC(=O)N[C@@H](CC(=O)O)C(=O)N[C@H](C(=O)N[C@@H](CCCCN)C(=O)N[C@@H](C)C(=O)N[C@@H](CS)C(=O)N[C@@H](CCC(=O)O)C(=O)N[C@@H](Cc1c[nH]c2ccccc12)C(=O)N[C@@H](C)C(=O)N[C@@H](CS)C(=O)N[C@@H](CCC(N)=O)C(=O)O)C(C)C)[C@@H](C)O (H-NRFCELFCIQGTGDVKACEWACQ-OH) | 4100 nM
CC[C@H](C)[C@H](NC(=O)[C@H](CS)NC(=O)[C@H](Cc1ccccc1)NC(=O)[C@H](CC(C)C)NC(=O)[C@H](CCC(=O)O)NC(=O)[C@H](CS)NC(=O)[C@H](Cc1ccccc1)NC(=O)[C@H](CCCNC(=N)N)NC(=O)[C@@H](N)CC(N)=O)C(=O)N[C@@H](CCC(N)=O)C(=O)NCC(=O)N[C@H](C(=O)N[C@@H](CCC(=O)O)C(=O)N[C@@H](CC(=O)O)C(=O)N[C@H](C(=O)N[C@@H](CCCCN)C(=O)N[C@@H](C)C(=O)N[C@@H](CS)C(=O)N[C@@H](CCC(=O)O)C(=O)N[C@@H](Cc1c[nH]c2ccccc12)C(=O)N[C@@H](C)C(=O)N[C@@H](CS)C(=O)N[C@@H](CCC(N)=O)C(=O)O)C(C)C)[C@@H](C)O (H-NRFCELFCIQGTEDVKACEWACQ-OH) | 3000 nM
CC[C@H](C)[C@H](NC(=O)[C@H](CS)NC(=O)[C@H](Cc1ccccc1)NC(=O)[C@H](CC(C)C)NC(=O)[C@H](CCC(=O)O)NC(=O)[C@H](CS)NC(=O)[C@H](Cc1ccc(Cl)cc1)NC(=O)[C@H](CCCNC(=N)N)NC(=O)[C@@H](N)CC(N)=O)C(=O)N[C@@H](CCC(N)=O)C(=O)NCC(=O)N[C@H](C(=O)NCC(=O)N[C@@H](CC(=O)O)C(=O)N[C@H](C(=O)N[C@@H](CCCCN)C(=O)N[C@@H](C)C(=O)N[C@@H](CS)C(=O)N[C@@H](CCC(=O)O)C(=O)N[C@@H](Cc1c[nH]c2ccccc12)C(=O)N[C@@H](C)C(=O)N[C@@H](CS)C(=O)N[C@@H](CCC(N)=O)C(=O)O)C(C)C)[C@@H](C)O (H-NR[Phe(4-Cl)]CELFCIQGTGDVKACEWACQ-OH) | 2300 nM
CC[C@H](C)[C@H](NC(=O)[C@H](CS)NC(=O)[C@H](Cc1ccccc1)NC(=O)[C@H](CCSC)NC(=O)[C@H](CCC(=O)O)NC(=O)[C@H](CS)NC(=O)[C@H](Cc1ccccc1)NC(=O)[C@H](CCCNC(=N)N)NC(=O)[C@@H](N)CC(N)=O)C(=O)N[C@@H](CCC(N)=O)C(=O)NCC(=O)N[C@H](C(=O)NCC(=O)N[C@@H](CC(=O)O)C(=O)N[C@H](C(=O)N[C@@H](CCCCN)C(=O)N[C@@H](C)C(=O)N[C@@H](CS)C(=O)N[C@@H](CCC(=O)O)C(=O)N[C@@H](Cc1c[nH]c2ccccc12)C(=O)N[C@@H](C)C(=O)N[C@@H](CS)C(=O)N[C@@H](CCC(N)=O)C(=O)O)C(C)C)[C@@H](C)O (H-NRFCEMFCIQGTGDVKACEWACQ-OH) | 4100 nM
CC[C@H](C)[C@H](NC(=O)[C@H](CS)NC(=O)[C@H](Cc1ccccc1)NC(=O)[C@H](CC(C)C)NC(=O)[C@H](CCC(=O)O)NC(=O)[C@H](CS)NC(=O)[C@H](Cc1ccccc1)NC(=O)[C@H](CCCNC(=N)N)NC(=O)[C@@H](N)CC(N)=O)C(=O)N[C@@H](CCC(=O)O)C(=O)NCC(=O)N[C@H](C(=O)NCC(=O)N[C@@H](CC(=O)O)C(=O)N[C@H](C(=O)N[C@@H](CCCCN)C(=O)N[C@@H](C)C(=O)N[C@@H](CS)C(=O)N[C@@H](CCC(=O)O)C(=O)N[C@@H](Cc1c[nH]c2ccccc12)C(=O)N[C@@H](C)C(=O)N[C@@H](CS)C(=O)N[C@@H](CCC(N)=O)C(=O)O)C(C)C)[C@@H](C)O (H-NRFCELFCIEGTGDVKACEWACQ-OH) | 2100 nM
CC(C)C[C@H](NC(=O)[C@H](CS)NC(=O)[C@H](CC(N)=O)NC(=O)[C@H](Cc1ccccc1)NC(=O)[C@H](Cc1ccc(O)cc1)NC(=O)[C@H](CS)NC(=O)[C@H](C)N)C(=O)N[C@@H](Cc1ccccc1)C(=O)N[C@@H](CCC(=O)O)C(=O)NCC(=O)N[C@@H](CC(N)=O)C(=O)N[C@@H](CC(=O)O)C(=O)N[C@@H](CCC(=O)O)C(=O)N[C@@H](CCC(=O)O)C(=O)N[C@H](C(=O)N[C@@H](CS)C(=O)N[C@@H](CCCCN)C(=O)N[C@@H](CCC(=O)O)C(=O)N[C@@H](CCCNC(=N)N)C(=O)N[C@@H](CS)C(=O)O)[C@@H](C)O (H-ACYFNCLFEGNDEETCKERC-OH) | 2000 nM
CC[C@H](C)[C@H](NC(=O)[C@H](CS)NC(=O)[C@H](Cc1ccccc1)NC(=O)[C@H](CC(C)C)NC(=O)[C@H](CCC(=O)O)NC(=O)[C@H](CS)NC(=O)[C@H](Cc1ccccc1)NC(=O)[C@H](CCCNC(=N)N)NC(=O)[C@@H](N)CC(N)=O)C(=O)N[C@@H](CCC(N)=O)C(=O)N[C@@H](CC(=O)O)C(=O)N[C@H](C(=O)NCC(=O)N[C@@H](CC(=O)O)C(=O)N[C@H](C(=O)N[C@@H](CCCCN)C(=O)N[C@@H](C)C(=O)N[C@@H](CS)C(=O)N[C@@H](CCC(=O)O)C(=O)N[C@@H](Cc1c[nH]c2ccccc12)C(=O)N[C@@H](C)C(=O)N[C@@H](CS)C(=O)N[C@@H](CCC(N)=O)C(=O)O)C(C)C)[C@@H](C)O (H-NRFCELFCIQDTGDVKACEWACQ-OH) | 2100 nM
CC[C@H](C)[C@H](NC(=O)[C@H](CS)NC(=O)[C@H](CC(C)C)NC(=O)[C@H](CC(C)C)NC(=O)[C@H](CCC(=O)O)NC(=O)[C@H](CS)NC(=O)[C@H](CC(C)C)NC(=O)[C@H](CCCNC(=N)N)NC(=O)[C@@H](N)CC(N)=O)C(=O)N[C@@H](CCC(N)=O)C(=O)NCC(=O)N[C@H](C(=O)NCC(=O)N[C@@H](CC(=O)O)C(=O)N[C@H](C(=O)N[C@@H](CCCCN)C(=O)N[C@@H](C)C(=O)N[C@@H](CS)C(=O)N[C@@H](CCC(=O)O)C(=O)N[C@@H](Cc1c[nH]c2ccccc12)C(=O)N[C@@H](C)C(=O)N[C@@H](CS)C(=O)N[C@@H](CCC(N)=O)C(=O)O)C(C)C)[C@@H](C)O (H-NRLCELLCIQGTGDVKACEWACQ-OH) | 13000 nM
CC(C)C[C@H](NC(=O)[C@H](CS)NC(=O)[C@H](CC(N)=O)NC(=O)[C@H](Cc1ccccc1)NC(=O)[C@H](Cc1ccc(O)cc1)NC(=O)[C@H](CS)NC(=O)[C@H](C)N)C(=O)N[C@@H](CC1CCCCC1)C(=O)N[C@@H](CCC(=O)O)C(=O)NCC(=O)N[C@@H](CC(N)=O)C(=O)N[C@@H](CC(=O)O)C(=O)N[C@@H](CCC(=O)O)C(=O)N[C@@H](CCC(=O)O)C(=O)N[C@H](C(=O)N[C@@H](CS)C(=O)N[C@@H](CCCCN)C(=O)N[C@@H](CCC(=O)O)C(=O)N[C@@H](Cc1c[nH]c2ccccc12)C(=O)N[C@@H](CS)C(=O)O)[C@@H](C)O (H-ACYFNCL[Cha]EGNDEETCKEWC-OH) | 2300 nM
